Where no end group is shown, it is not given here.
Experiment: Glucagon solubility assay (UV absorbance of supernatant after pH adjustment)
Assay type: physicochemical
Settings: for solubility relative to native glucagon: pH values of 5.5 and 7.0, after 60 hours at 25° C. (FIG. 3) or 24 hours at 25° C. then 24 hours at 4° C. (FIG. 4)

Molecule	solubility relative to native glucagon	Percent Soluble (pH 7)
HSQGTFTSDYSKYLESRRAQDFVQWLMDT [D28, E15]	superior solubility	
CSCC[C@H](NC(=O)[C@H](CC(C)C)NC(=O)[C@H](Cc1c[nH]c2ccccc12)NC(=O)[C@H](CCC(N)=O)NC(=O)[C@@H](NC(=O)[C@H](Cc1ccccc1)NC(=O)[C@H](CC(=O)O)NC(=O)[C@H](CCC(N)=O)NC(=O)[C@H](C)NC(=O)[C@H](CCCNC(=N)N)NC(=O)[C@H](CCCNC(=N)N)NC(=O)[C@H](CO)NC(=O)[C@H](CC(=O)O)NC(=O)[C@H](CC(C)C)NC(=O)[C@H](Cc1ccc(O)cc1)NC(=O)[C@H](CCCCN)NC(=O)[C@H](CO)NC(=O)[C@H](Cc1ccc(O)cc1)NC(=O)[C@H](CC(=O)O)NC(=O)[C@H](CO)NC(=O)[C@@H](NC(=O)[C@H](Cc1ccccc1)NC(=O)[C@@H](NC(=O)CNC(=O)[C@H](CCC(N)=O)NC(=O)[C@H](CO)NC(=O)[C@@H](N)Cc1c[nH]cn1)[C@@H](C)O)[C@@H](C)O)C(C)C)C(=O)N[C@@H](CC(=O)O)C(=O)N[C@@H](CCC(=O)O)C(=O)O [D28, E29]	superior solubility	
Glucagon, Cys17PEG5K: Glucagon Cys17 (1-29) reacted with methoxy poly(ethyleneglycol) maleimide avg. M.W. 5000		94%
